Measured values taken from patent publication EP0286418A1, “Anti-retroviral agents and delivery systems for the same” (priority 1987, dated 1988).

Experiments:
[1] = target: T1, HIV reverse transcriptase (Human immunodeficiency virus type 1 group M subtype B, UniProt P03367); experiment: reverse transcriptase assay on supernatant of chronically HIV-producing cells; format: cell-based; conditions: for activity at 10 µg/mL: dose 10.0 micrograms/ml; for activity at 0.01 µg/mL: dose 0.01 micrograms/ml; for activity at 0.1 µg/mL: dose 0.1 micrograms/ml; for activity at 1 µg/mL: dose 1.0 micrograms/ml
T1 construct: endogenous in cells; host or cells: U.1 (clone of promonocytic U937) and 8.E6 (clone of lymphoid A.301), chronically HIV-producing
Protocol: Liposomes were tested for toxic effect on two types of cells which chronically produce HIV. One clone (8.E6) was derived from the lymphoid cell line A.301; the other clone (U.1) was derived from the promonocytic line U937. Cells (1×10⁶/well) in RPMI medium with 10% fetal calf serum were pipetted into a flat-bottom 96-well microtiter plate. To each well was added 50 microliters of solution containing ddCTP-liposomes, empty liposomes, free ddCTP or phosphate buffered saline. Fifty microliters of phorbol myristyl acetate (PMA) was then added to each well to a final concentration of 10⁻⁹ M for stimulation, or else 50 microliters of saline was added for non-stimulated configurations. The plates were incubated at 37°C in 7% CO₂ for about 48 hours. 100 microliters of supernatant was then taken from each well to analyze for reverse transcriptase (RT) activity using polyadenylate and oligo-deoxythymidine. To perform the RT assay, 10 microliters of supernatant containing RT was added to a cocktail containing poly A, oligo dT (Pharmacia, Inc. Piscataway, N.J., USA) MgCl₂, and ³²P-dTTP (Amersham) and incubated for 2 hours at 37°C. Ten microliters of the cocktail was then spotted onto DE81 paper, dried, and washed in 1X saline sodium citrate buffer. The paper was then dried, cut and counted on a Beckman LS 7000 scintillation counter.

[2] = leakage from liposomes at 4°C; format: physicochemical; conditions: liposomes of Example 1 or similar liposomes
[3] = leakage from liposomes at 37°C in DMEM-GG-FCS; format: physicochemical
Protocol: The release of liposome contents as a function of time was assessed by centrifugal elution of free ddCTP through Centrifree filters (Amicon, Danvers, Mass., USA). Typically, 100 microliters of suspension was centrifuged at 1500 G for about 10 minutes, 100 microliters additional phosphate-buffered saline was added, and the filter was again spun for about 10 minutes. Pooled filtrate was counted for ³H-ddCTP to determine released drug, and the filter itself was similarly counted to establish the mass balance. Very little ¹⁴C-cholesteryl oleate was ever found in the filtrate, indicating that liposomal lipid was not passing through the filter. […] Leakage tests were also conducted under conditions mimicking those of the viral experiments infra, i.e., in tissue culture plates with 96 flat-bottom wells (Costar, Cambridge, Mass., USA) at 37°C in a CO₂ incubator in Dulbecco's Minimal Eagles Medium supplemented with gentamycin, glutamine, and 10% fetal calf serum (DMEM-GG-FCS). […] In contrast, 50% of the ddC was released within 1 hour, and 95% within 4 hours.

[4] = tested on: monocytes; experiment: superoxide generation by monocytes; format: cell-based, Human
Protocol: (§1) Human peripheral blood mononuclear cells were obtained by standard procedures employing continuous flow cell separation (leukapheresis), such as described in Wahl, et al., Cellular Immunol. 85:373-383 (1984). The preparation was diluted in phosphate-buffered saline and layered onto gradients of Ficoll-Paque (Pharmacia-PL Biochemicals, Piscataway, N.J., USA). After centrifugation, mononuclear cells were pipetted from the interface, washed, and suspended in DMEM-GG-FCS. They were then fractionated by countercurrent centrifugal elutriation. The procedure comprises the Beckman elutriation system including a J-21 Beckman Centrifuge, a JE-6 elutriator rotor, a stroboscope, and a Masterflex pump and pumphead. The cells were loaded into the rotor and fractionated by elution at increasing flow rates. Fractions 7 and 8, highly enriched for monocytes, were pooled for use.

[5] = tested on: monocytes; experiment: percent lysis of Candida albicans by monocytes; format: cell-based, Human; conditions: effect on monocyte function
Protocol: as §1

[6] = tested on: monocytes; experiment: production of prostaglandin E2 by monocytes; format: cell-based, Human; conditions: effect on monocyte function
Protocol: as §1

[7] = in vitro; format: in vitro ADME
Protocol: When the same incubations were done in the absence of monocytes, the results were essentially identical.
Studies were conducted under conditions mimicking those of anti-viral tests. ddCMP: dideoxycytidine monophosphate. Data points represent integrals under HPLC peaks from gradient elution on a VYDAC nucleotide column.

[8] = tested on: HIV-1 (Ba-L); experiment: inhibition of HIV proliferation in monocytes (p24 antigen ELISA); format: cell-based; conditions: HIV-infected human monocytes; compared with ddCTP liposomes
[9] = in vitro; format: in vitro ADME; conditions: serum-containing medium with cells
[10] = PMA-stimulated (1 nM) U.1 cells, normalized by average of empty liposome controls
[11] = U.1 cells, no PMA, relative to controls with no drug

Structure (SMILES): Nc1ccn([C@H]2CC[C@@H](COP(=O)(O)OP(=O)(O)OP(=O)(O)O)O2)c(=O)n1 [ddCTP, 2ʹ,3ʹ-dideoxycytidine-5ʹ-triphosphate]
- activity at 10 µg/mL ([1]; 48 h, U.1 cells, no PMA, relative to controls with no drug): 69 ± 21%
- activity at 0.01 µg/mL [1, 10]: 84%
- activity at 0.1 µg/mL [1, 10]: 96%
- activity at 1 µg/mL [1, 10]: 75%
- activity at 10 µg/mL [1, 10]: 75%
- activity at 0.01 µg/mL [1, 11]: 67 ± 19%
- activity at 0.1 µg/mL [1, 11]: 80 ± 12%
- activity at 1 µg/mL [1, 11]: 61 ± 4%
- t1/2 for leakage from liposomes [2]: > 60 h
- % of total drug in liposomes ([3]; absence of cells, 0 h): 85.6%
- % of total drug in liposomes ([3]; absence of cells, 0.16 h): 74.3%
- % of total drug in liposomes ([3]; absence of cells, 0.32 h): 78.5%
- % of total drug in liposomes ([3]; absence of cells, 1 h): 77.2%
- % of total drug in liposomes ([3]; absence of cells, 2 h): 82.1%
- % of total drug in liposomes ([3]; absence of cells, 4 h): 78.5%
- % of total drug in liposomes ([3]; absence of cells, 24 h): 81.7%
- % of total drug in liposomes ([3]; absence of cells, 48 h): 75.7%
- % of total drug in liposomes ([3]; absence of cells, 72 h): 87.4%
- leakage from liposomes ([3]; over a period of 72 hours, presence or absence of adherent monocytes): Very little leakage
- % of total drug in liposomes ([3]; with adherent human monocytes, 0 h): 84.4%
- % of total drug in liposomes ([3]; with adherent human monocytes, 0.16 h): 83.8%
- % of total drug in liposomes ([3]; with adherent human monocytes, 0.32 h): 84.4%
- % of total drug in liposomes ([3]; with adherent human monocytes, 1 h): 78.0%
- % of total drug in liposomes ([3]; with adherent human monocytes, 2 h): 83.3%
- % of total drug in liposomes ([3]; with adherent human monocytes, 4 h): 82.9%
- % of total drug in liposomes ([3]; with adherent human monocytes, 24 h): 75.9%
- % of total drug in liposomes ([3]; with adherent human monocytes, 48 h): 68.0%
- % of total drug in liposomes ([3]; with adherent human monocytes, 72 h): 78.4%
- Superoxide ([4]; ddCTP 2.2 uM): 1.21 (.02) nmoles/well
- Superoxide ([4]; ddCTP 11 uM): 0.85 (.04) nmoles/well
- Superoxide ([4]; ddCTP 56 uM): 0.77 (.04) nmoles/well
- Superoxide ([4]; ddCTP .0 uM): 1.19 (.06) nmoles/well
- Superoxide ([4]; ddCTP .018 uM): 1.33 (.05) nmoles/well
- Superoxide ([4]; ddCTP .09 uM): 1.42 (.10) nmoles/well
- Superoxide ([4]; ddCTP .45 uM): 1.33 (.08) nmoles/well
- percent lysis of Candida albicans [5]: No consistent effects
- production of prostaglandin E2 [6]: No consistent effects
- conversion to ddCMP [7]: largely converted to ddCMP
- fraction present as ddC [7]: 23%
- Percent of total drug 3H as ddCTP ([7]; 10% fetal calf serum medium, 0.5 h): 39.6%
- Percent of total drug 3H as ddCTP ([7]; serum-containing medium with cells, 4 h): 1.4%
- Percent of total drug 3H as ddCTP ([7]; serum-containing medium with cells, 6 h): 1.4%
- Percent of total drug 3H as ddCTP ([7]; serum-containing medium without cells, 0.75 h): 20.3%
- Percent of total drug 3H as ddCTP ([7]; serum-containing medium without cells, 1.5 h): 19.5%
- Percent of total drug 3H as ddCTP ([7]; serum-containing medium without cells, 4 h): 2.7%
- Percent of total drug 3H as ddCTP ([7]; serum-containing medium without cells, 6 h): 0.6%
- remaining at 72 h ([7]; serum-containing medium without cells, Percent of total drug 3H as ddCTP): 0%
- activity against p24 expression [8]: active at similar concentrations
- Percent of total drug 3H as ddCTP ([9]; 0.5 h): 67.8%
- remaining at 72 h ([9]; Percent of total drug 3H as ddCTP): 0%
